Measurements reported in patent publication US6706267B1, “Glucosamine and egg for reducing inflammation” (Arkion Life Sciences LLC, priority 1999, dated 2004).
Marks after values point to notes of the source that are not given here.

Columns and labels:
Type in all cases: in vivo
[1] = test system: established rat adjuvant arthritis; assay: Rat adjuvant arthritis model: histomorphologic observations, tibiotarsal joint; parameters: scale not given here; conditions: for Ankylosis (score) / Erosion, Cartliage (score) / Hyperostosis (score) / Inflammation, periarticular (score) / Osteolysis (score) / Pannus, Cartliage (score): Tibiotarsal Joint (H&E); for Erosion, Cartilage (score): Tibiotarsal Joint (PAS)
From the text: (§1) To assess the synergistic antiarthritic effect of Glucosamine hydrochloride and the DCV hyperimmune egg in the established rat adjuvant arthritis, a chronic animal model of inflammation.

plasma fibrinogen = assay: Rat established adjuvant arthritis model: plasma fibrinogen levels
From the text: as §1

[2] = test system: established rat adjuvant arthritis; assay: Rat established adjuvant arthritis model: paw edema; conditions: for % Chg (paw edema vs Control Adjuvant) / Day 14-Mean Paw Edema (ml ± SE) / Day 22-Mean Paw Edema (ml ± SE) / Day 30-Mean Paw Edema (ml ± SE): oral, rat
From the text: as §1

Compound	Ankylosis (score) ([1]; Day 22)	Erosion, Cartliage (score) ([1]; Day 22)	Hyperostosis (score) ([1]; Day 22)	Inflammation, periarticular (score) ([1]; Day 22)	Osteolysis (score) ([1]; Day 22)	Pannus, Cartliage (score) ([1]; Day 22)	Ankylosis (score) ([1]; Day 30)	Erosion, Cartliage (score) ([1]; Day 30)	Hyperostosis (score) ([1]; Day 30)	Inflammation, periarticular (score) ([1]; Day 30)	Osteolysis (score) ([1]; Day 30)	Pannus, Cartliage (score) ([1]; Day 30)	Erosion, Cartilage (score) ([1]; Day 22)	Erosion, Cartilage (score) ([1]; Day 30)	% Δ from ctrl (plasma fibrinogen) (plasma fibrinogen; Day 23, oral) [%]	Mean Plasma Fibrinogen Levels (mg/dl ± SE) (plasma fibrinogen; Day 23, oral) [mg/dL]	% Δ from ctrl (plasma fibrinogen) (plasma fibrinogen; Day 30, oral)	Mean Plasma Fibrinogen Levels (mg/dl ± SE) (plasma fibrinogen; Day 30, oral) [mg/dL]	% Chg (paw edema vs Control Adjuvant) ([2]; Day 14) [%]	Day 14-Mean Paw Edema (ml ± SE) ([2]; Day 14)	other results
Cl.N[C@H]1C(O)O[C@H](CO)[C@@H](O)[C@@H]1O (some centres unmarked) [GLU-250, Glucosamine hydrochloride]	3.5	2.0	3.0	3.5	1.5	2.0	4.0	4.0	3.5	4.0	3.5	4.0	2.0	4.0	−2	803 ± 39	−28%	487 ± 112	−15	1.1 ± 0.3, n = 7 ml	% Δ from ctrl (plasma fibrinogen) (plasma fibrinogen; Day 16, oral): +18%; Mean Plasma Fibrinogen Levels (mg/dl ± SE) (plasma fibrinogen; Day 16, oral): 735 ± 44 mg/dL; % Chg (paw edema vs Control Adjuvant) ([2]; Day 22): −16%; Day 22-Mean Paw Edema (ml ± SE) ([2]; Day 22): 1.6 ± 0.3, n = 7 ml; % Chg (paw edema vs Control Adjuvant) ([2]; Day 30): +48* %; Day 30-Mean Paw Edema (ml ± SE) ([2]; Day 30): 3.1 ± 0.2, n = 5 ml; effect on paw edema, in words ([2]; day 30, severe polyarthritis): ineffectiveness; effect on paw edema, in words ([2]; days 14 and 22): inhibitory effect
COc1ccc2c(c1)c(CC(=O)O)c(C)n2C(=O)c1ccc(Cl)cc1 [Indo, Indomethacin]	1.5/1.5	1.5	3.0	3.5/3.5	2.5	1.5	1.5/1.5	2.5	2.0	3.5/3.5	1.0	2.5	1.5	2.5	−28	617 ± 72	−46* %	366 ± 48	−8	1.2 ± 0.4, n = 6 ml	percent inhibition of fibrinogen levels (plasma fibrinogen; day 30): 46%; % Chg (paw edema vs Control Adjuvant) ([2]; Day 22): −37%; Day 22-Mean Paw Edema (ml ± SE) ([2]; Day 22): 1.2 ± 0.1, n = 6 ml; % Chg (paw edema vs Control Adjuvant) ([2]; Day 30): −86* %; Day 30-Mean Paw Edema (ml ± SE) ([2]; Day 30): 0.3 ± 0.1, n = 5 ml
